PubChem BioAssay (NCI)
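Dose response: 5 concentrations. Exposure: 48 h. Format: 96-well plates. Endpoint: linear interpolation; highest concentration if not reached. TGI is the concentration that stops growth completely.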

Tests used:
Assay in all cases: inhibition of tumour cell growth, NCI panel, 48 h
MCF7 breast = system: MCF7 breast
SW-620 colon = system: SW-620 colon
NCI-H23 lung = system: NCI-H23 lung
HS 578T breast = system: HS 578T breast
UACC-257 melanoma = system: UACC-257 melanoma
T-47D breast = system: T-47D breast
DU-145 prostate = system: DU-145 prostate
LOX IMVI melanoma = system: LOX IMVI melanoma
HCC-2998 colon = system: HCC-2998 colon
HOP-92 NSCLC = system: HOP-92 NSCLC
ACHN renal = system: ACHN renal
HCT-116 colon = system: HCT-116 colon
IGROV1 ovarian = system: IGROV1 ovarian
SK-MEL-5 melanoma = system: SK-MEL-5 melanoma
A549 NSCLC = system: A549 NSCLC
OVCAR-3 ovarian = system: OVCAR-3 ovarian
PC-3 prostate = system: PC-3 prostate

Measured: TGI

COc1cc2c(cc1OCc1ccccc1)NC(=S)[C@@H]1CCCN1C2=S
> 100 µM: all assays above
